Blank lines part the entries; values can stand above or below the compound they belong to. The star is where a group is joined. AMC = Cc1cc(=O)oc2cc(N*)ccc12; Cbz = O=C(OCc1ccccc1)*
How the values were obtained:
Cathepsin B = Cathepsin B (Homo sapiens, UniProt P07858); test: Proteolytic activity assay: cleavage of fluorogenic peptides by cathepsin B; type: biochemical; details: substrate cleaved by Cathepsin B
Protocol: (§1) Assay was done in a reaction mixture containing 200 mM acetate buffer, pH 5.5, 4 mM EDTA and 8 mM DTT. Following a 20 minutes incubation at 37° C., fluorescence released due to proteolytic activity was determined using a BMG POLARstar™ Galaxy fluorometer: excitation at 390 nm and emission at 460 nm.

293 cell extract = test: Cleavage of Z-Pro-Lys-Lys-Glu-AMC (Peptide 1) by 293 cell extract and its inhibition by protease inhibitors; type: biochemical, human; details: different pHs, pH range 4.5-7.5
Protocol: Following a 20 minutes incubation at 37° C., fluorescence released due to proteolytic activity was determined using a BMG POLARstar™ Galaxy fluorometer: excitation at 390 nm and emission at 460 nm.

Cathepsin L = target: T1, Cathepsin L (Homo sapiens, UniProt P07711); test: Proteolytic activity assay: cleavage of fluorogenic peptides by cathepsin L; type: biochemical; details: substrate cleaved by Cathepsin L
T1 construct: purchased Calbiochem
Protocol: as §1

antithrombin = antithrombin (Homo sapiens, UniProt P01008); test: Elisa assay for binding of antithrombin to heparin; details: inhibition of antithrombin binding to heparin; NI = no inhibition; read-out: IC50 ATIII
Protocol: Elisa assay for determination of binding of antithrombin to heparin—96 well microplates were coated overnight with Heparin-albumin (Lizard) and blocked with I % BSA in PBS with 0.05% Tween and 0.01% thimerosal for 2 hrs. […] was added to the plates at a concentration of 0.5 μg/ml and incubated overnight at 4° C. The amount of antithrombin bound to heparin was detected using an anti-antithrombin monoclonal antibody (Sigma Cat. # A5816) diluted to 1:200, and secondary antibodies (anti-mouse anti-Fc? conjugated to horseradish peroxidase, Jackson cat. # 115-035-008, 1:100). TMB (Pierce Cat. #34021) was used as a substrate for peroxidase.
The plates were read at 450 nm with a reference wavelength of 630 nm using a VERSAmax plate reader. […] Percent inhibition was calculated as compared to the control reactions pre-incubated with 1% DMSO only.

[1] = target: T2, pro-heparanase transiently expressed in 293 cells (Homo sapiens, UniProt Q9Y251, K307R); test: Pro-heparanase processing in transiently transfected 293 cells (Western blot); type: cell-based
T2 sequence (Q9Y251 36-543 K307R): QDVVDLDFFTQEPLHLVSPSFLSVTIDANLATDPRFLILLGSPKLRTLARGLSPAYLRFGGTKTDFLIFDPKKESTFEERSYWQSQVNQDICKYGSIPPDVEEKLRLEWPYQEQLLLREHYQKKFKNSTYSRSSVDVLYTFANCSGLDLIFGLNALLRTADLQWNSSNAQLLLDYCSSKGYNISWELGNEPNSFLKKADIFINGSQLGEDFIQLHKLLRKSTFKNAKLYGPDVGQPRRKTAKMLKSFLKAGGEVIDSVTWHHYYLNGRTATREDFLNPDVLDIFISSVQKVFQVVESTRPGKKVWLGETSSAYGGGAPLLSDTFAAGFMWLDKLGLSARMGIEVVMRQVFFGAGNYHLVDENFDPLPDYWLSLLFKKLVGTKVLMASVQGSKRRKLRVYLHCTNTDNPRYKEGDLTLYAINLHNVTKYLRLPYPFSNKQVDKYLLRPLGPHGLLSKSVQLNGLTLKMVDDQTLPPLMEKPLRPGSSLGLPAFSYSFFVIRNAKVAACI
Protocol: (§2) Western blot analysis—Western blot analysis was performed using rabbit anti-heparanase polyclonal antibodies as described in U.S. Pat. Nos. 6,177,545; 6,531,129; and 6,562,950.
Transient transfections—293 cells (200,000) were plated onto a 6 well tissue culture plate. 24 hrs later, the cells were transfected with 1 μg pSI (Promega) hpa plasmid (U.S. Pat. No. 6,475,763) in 3 μl Fugene reagent that was pre-incubated for 15 min in 100 μl medium without serum. Cells were treated with inhibitors 4 and 17 hrs following transfection.

heparanase (H53) = target: T3, heparanase (H53) (Homo sapiens, UniProt Q9Y251, K307R); test: Heparanase activity inhibition (H53), DMB assay; type: biochemical; details: heparanase activity inhibition (H53); NI = no inhibition
T3 sequence (Q9Y251 158-543 K307R limits assumed): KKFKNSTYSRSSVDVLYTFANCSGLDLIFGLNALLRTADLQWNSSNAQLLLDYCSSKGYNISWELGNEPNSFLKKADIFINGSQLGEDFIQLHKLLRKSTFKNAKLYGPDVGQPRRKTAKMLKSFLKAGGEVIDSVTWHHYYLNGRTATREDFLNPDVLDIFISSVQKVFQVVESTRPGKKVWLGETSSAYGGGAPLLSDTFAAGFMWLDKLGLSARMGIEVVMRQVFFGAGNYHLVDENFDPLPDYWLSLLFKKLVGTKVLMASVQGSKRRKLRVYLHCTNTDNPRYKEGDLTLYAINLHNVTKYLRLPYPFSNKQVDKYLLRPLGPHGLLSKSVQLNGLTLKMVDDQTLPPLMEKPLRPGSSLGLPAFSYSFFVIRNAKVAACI
T3 sequence (Q9Y251 36-109 limits assumed): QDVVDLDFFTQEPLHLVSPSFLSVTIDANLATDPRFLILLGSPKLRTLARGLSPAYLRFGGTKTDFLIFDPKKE
Protocol: At the end of the incubation, the cells were lysed by three consecutive cycles of freezing and thawing in a −80° C. Freezer and a 37° C. shaker. Formation of active heparanase was detected by determination of heparanase activity in DMB assay as described in patent application U.S. Pat. No. 6,190,875B.

pro-heparanase (H60) [2] = target: T4, pro-heparanase (H60) (Homo sapiens, UniProt Q9Y251, K307R); test: Pro-heparanase activation in a cell-based assay (293 cells, DMB assay)
T4 sequence (Q9Y251 36-543 K307R): T2 sequence (Q9Y251 36-543 K307R)

[3] = Heparin binding of compounds (heparin sepharose CL-6B beads); details: compound at 5 uM
Protocol: Heparin binding—5 μM of the selected compound was prepared in a solution of PBS pH 7.2 with 0.05% Tween and 5% DMSO. […] Excess water was discarded by filtration using a Multiscreen vacuum manifold (Millipore, Cat No. MAVM 096 00). 200 μl of each compound tested was transferred to three wells of the filter plate—one empty well, one with sepharose CL-6B and one with heparin sepharose CL-6B. Plates were rotated for 2 hrs at 37° C. followed by filtration to a new 96 well clear plate, using a Multiscreen vacuum manifold. The absorbance spectrum of the filtrate in each well was determined using a VERSAmax plate reader (Molecular devices). Percent of heparin binding was calculated from the binding to heparin sepharose CL-6B as compared to the binding of the compound to the control sepharose CL-6B beads.

β-FGF = target: T5, β-FGF (Homo sapiens, UniProt P09038); test: Elisa assay for binding of β-FGF to heparin; details: inhibition of β-FGF binding to heparin
T5 construct: purchased Sigma F0291
Protocol: Elisa assay for determination of binding of β-FGF to heparin—96 well microplates were coated overnight with Heparin-albumin (Lizard) and blocked with 1% BSA in PBS with 0.05% Tween and 0.01% thimerosal for 2 hrs. β-FGF was added to the plates at a concentration of 0.8 ng/ml and incubated for 45 min at 23-25° C. The amount of β-FGF bound to heparin was detected using anti-FGF monoclonal antibody (Sigma Cat. # F6162) at a concentration of 2.5 ng/ml and secondary antibodies Sheep anti-mouse IgG linked to horseradish peroxidase (1:3000). TMB (Pierce Cat. #34021) was used as a substrate for peroxidase.
(§3) The plates were read at 450 nm with a reference wavelength of 630 nm using a VERSAmax plate reader. […] Percent inhibition was calculated as compared with the control reactions pre-incubated with 1% DMSO only.

VEGF = target: T6, VEGF (Homo sapiens, UniProt P15692); test: Elisa assay for binding of VEGF to heparin; details: inhibition of VEGF binding to heparin
T6 sequence (P15692 27-191 isoform P15692-4): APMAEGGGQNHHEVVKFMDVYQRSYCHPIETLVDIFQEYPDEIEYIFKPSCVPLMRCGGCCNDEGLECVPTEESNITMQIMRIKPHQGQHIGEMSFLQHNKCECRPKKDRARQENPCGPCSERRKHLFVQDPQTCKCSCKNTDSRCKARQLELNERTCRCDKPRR
Protocol: Elisa assay for determination of binding of VEGF to heparin—96 well microplates were coated overnight with Heparin-albumin (Lizard) and blocked with 1% BSA in PBS with 0.05% Tween and 0.01% thimerosal for 2 hrs. VEGF was added to the plates at a concentration of 2 ng/ml and incubated for 45 min. at 23-25° C. The amount of VEGF bound to heparin was detected using anti-VEGF monoclonal antibody (Sigma Cat. # V4758) at a concentration of 0.26 μg/ml and secondary antibodies Sheep anti-mouse IgG linked to horseradish peroxidase (1:2000). TMB (Pierce Cat. #34021) was used as a substrate for peroxidase.
as §3

pro-heparanase (H60) [4] = target: T4, pro-heparanase (H60); test: Processing and activation of pro-heparanase in vitro with cathepsin B and D in the presence of heparin (Western blot, DMB assay); type: biochemical; details: cathepsin B and/or cathepsin D, heparin-sepharose
Protocol: as §2
Following a 17 hours incubation at room temperature, reaction products were filtered to a new plate and quantified using di-methyl-methylene-blue, as described in U.S. Pat. No. 6,190,875.
Assay mixtures contained heparin (Sigma, H3393) or heparinomimetic molecules ethane-1,2-disulfonic acid (Sigma, E2269) and heparin disaccharide IVA (Sigma, H0895) for western blot analysis or heparin sepharose beads for activation assays, in 200 mM acetate buffer, pH 5.5, 4 mM EDTA and 8 mM DTT, with either Cathepsin B, Cathepsin D or both. Following a 17 hours of incubation at room temperature, reaction products were examined by western blot analysis or filtered to a new plate and quantified using di-methyl-methylene-blue, as described in U.S. Pat. No. 6,190,875 for activation assay.

cathepsin G = target: T7, cathepsin G (Homo sapiens, UniProt P08311); test: Cathepsin G activity inhibition; type: biochemical; details: data not shown
T7 sequence (P08311 21-244): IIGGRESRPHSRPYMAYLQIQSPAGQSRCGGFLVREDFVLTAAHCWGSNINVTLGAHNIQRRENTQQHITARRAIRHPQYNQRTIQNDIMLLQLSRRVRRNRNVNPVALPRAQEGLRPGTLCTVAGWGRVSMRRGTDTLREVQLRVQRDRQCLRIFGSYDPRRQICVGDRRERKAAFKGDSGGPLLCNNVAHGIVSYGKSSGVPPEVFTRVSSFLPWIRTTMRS

pro-heparanase (H60) [5] = test: Processing and activation of pro-heparanase in vitro with cathepsin G; type: biochemical, human; details: in the presence of heparin
Protocol: The assays were performed in assay mixtures containing heparin for western blot analysis or heparin sepharose beads for activation assays, in PBS, 365 mM NaCl, with 1 μ/ml cathepsin G (Sigma, C4428). Following a 17 hours incubation at room temperature, reaction products were examined in western blot analysis or filtered to a new plate and quantified using di-methyl-methylene-blue, as described in U.S. Pat. No. 6,190,875 for activation assay.

[6] = target: T8, Elastase, human neutrophil (Homo sapiens, UniProt P08246); test: Determination of elastase activity; type: biochemical; details: Table 13
T8 construct: Elastase, human neutrophil (Calbiochem cat.# 324681); purchased Calbiochem 324681; host or cells: human neutrophils
T8 sequence (P08246 30-267): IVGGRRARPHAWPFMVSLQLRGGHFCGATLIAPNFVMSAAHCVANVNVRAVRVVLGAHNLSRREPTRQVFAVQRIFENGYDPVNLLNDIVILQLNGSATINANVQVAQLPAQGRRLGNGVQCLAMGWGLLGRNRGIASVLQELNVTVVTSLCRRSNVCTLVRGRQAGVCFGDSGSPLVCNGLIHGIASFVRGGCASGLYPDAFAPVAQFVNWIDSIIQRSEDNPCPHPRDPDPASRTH

T5 sequence (P09038 143-288): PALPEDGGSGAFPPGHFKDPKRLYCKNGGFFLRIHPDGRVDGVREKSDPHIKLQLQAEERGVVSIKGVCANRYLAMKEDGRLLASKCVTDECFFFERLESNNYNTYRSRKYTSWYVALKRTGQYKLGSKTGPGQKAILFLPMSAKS
antithrombin, sequence (P01008 33-464): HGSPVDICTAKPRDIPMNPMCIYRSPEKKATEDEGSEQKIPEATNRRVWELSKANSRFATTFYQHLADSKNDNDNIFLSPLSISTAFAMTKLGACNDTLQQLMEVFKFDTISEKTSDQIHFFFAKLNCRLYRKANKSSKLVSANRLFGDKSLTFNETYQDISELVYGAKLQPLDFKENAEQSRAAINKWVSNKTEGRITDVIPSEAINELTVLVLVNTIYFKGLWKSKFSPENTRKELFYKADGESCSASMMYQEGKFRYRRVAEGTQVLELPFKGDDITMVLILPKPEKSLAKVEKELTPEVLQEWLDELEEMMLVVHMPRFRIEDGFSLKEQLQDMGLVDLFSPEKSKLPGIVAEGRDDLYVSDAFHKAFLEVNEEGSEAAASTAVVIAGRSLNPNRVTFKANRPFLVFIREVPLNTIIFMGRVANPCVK
T1 sequence (P07711 114-333, species assumed): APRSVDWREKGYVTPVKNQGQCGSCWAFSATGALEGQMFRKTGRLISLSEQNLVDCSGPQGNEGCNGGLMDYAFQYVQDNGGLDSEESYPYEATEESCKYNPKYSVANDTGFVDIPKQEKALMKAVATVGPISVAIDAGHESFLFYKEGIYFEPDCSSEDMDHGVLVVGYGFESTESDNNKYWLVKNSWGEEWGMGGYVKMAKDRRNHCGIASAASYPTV

Compound: Z-Pro-Lys-Lys-Glu-AMC (Cbz-PKKE-{AMC}; SMILES Cc1cc(=O)oc2cc(NC(=O)[C@H](CCC(=O)O)NC(=O)[C@H](CCCCN)NC(=O)[C@H](CCCCN)NC(=O)[C@@H]3CCCN3C(=O)OCc3ccccc3)ccc12) [Peptide 1]
Activity (δfluorescence) (Cathepsin B): 8926 | cleavage by 293 cell extract (293 cell extract): highest at pH 5.5-6.5 | Activity (δfluorescence) (Cathepsin L): 0

IC50 (antithrombin): 18000 nM | pro-heparanase expression [1]: did not affect pro-heparanase expression | IC50 (heparanase (H53)): 20000 nM | IC50 (pro-heparanase (H60) [2]; inhibition of pro-heparanase activation, Table 11, heparin-binding compounds): 570 nM | Binding to heparin (5 uM) [3]: 70% | IC50 (β-FGF): 1300 nM | IC50 (VEGF): 2400 nM
Compound: Cc1cc(N(C)C)cc2[s+]c3cc(N(C)C)cc(C)c3nc12 [Compound 112]
pro-heparanase processing [1]: completely inhibited pro-heparanase processing

activation of pro-heparanase in vitro (heparanase activity) (pro-heparanase (H60) [4]): not by cathepsin B | inhibition of the activity of cathepsin G (cathepsin G): inhibit the activity of cathepsin G | IC50 (pro-heparanase (H60) [2]; inhibition of pro-heparanase (H60) activation, Table 13 serine protease inhibitors): 500 nM | IC50 [6]: 13000 nM
Compound: O=C(Nc1ccc(Oc2cccc(Oc3ccc(NC(=O)c4ccncc4)cc3)c2)cc1)c1ccncc1 [Compound 128]
inhibition of pro-heparanase activation in-vitro by cathepsin G (pro-heparanase (H60) [5]): inhibit pro-heparanase activation in-vitro by cathepsin G

Source: patent US20050042213A1, “Methods and pharmaceutical compositions for modulating heparanase activation and uses thereof” (InSight Biopharmaceuticals Ltd., priority 2003, published 2005)
